Test results from US10336732B2, “1-heterocyclyl isochromanyl compounds and analogs for treating CNS disorders” (Sunovion Pharmaceuticals Inc., priority 2015, dated 2019).

test system: mice; assay: Neuropharmacological assay (SmartCube), behavioral signature of compound-treated mice; format: in vivo; details: i.p. 15 min before behavioral test, most efficacious dose(s) of 3 doses
Outline: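 Mice received compound i.p. in NMP/PEG/propylene glycol vehicle at 3 doses, 15 min before testing. Video-captured behavior was algorithmically compared with a reference-drug signature database.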

| SMILES | AD: ADHD (probability that behavioral signature matches class) | AG: analgesic (probability that behavioral signature matches class) | AX: anxiolytic (probability that behavioral signature matches class) | CE: cognitive enhancer (probability that behavioral signature matches class) | DP: anti-depressant (probability that behavioral signature matches class) | HA: hallucinogen (probability that behavioral signature matches class) | MS: mood stabilizer (probability that behavioral signature matches class) | PS: anti-psychotic (probability that behavioral signature matches class) | SD: sedative hypnotic (probability that behavioral signature matches class) | UN: uncharacterized CNS activity (probability that behavioral signature matches class) |
| --- | --- | --- | --- | --- | --- | --- | --- | --- | --- | --- |
| Fc1ccc2c(c1)CO[C@@H]2[C@@H]1CCN1 [Compound I-126, (S)-2-((S)-5-fluoro-1,3-dihydroisobenzofuran-1-yl)azetidine] | + (LOQ ≤ + <5%) | ++ (5% ≤ ++ <25%) | ++ (5% ≤ ++ <25%) | ++ (5% ≤ ++ <25%) | +++ (25% ≤ +++ <50%) | + (LOQ ≤ + <5%) | + (LOQ ≤ + <5%) | +++ (25% ≤ +++ <50%) | ++ (5% ≤ ++ <25%) | ++ (5% ≤ ++ <25%) |
| c1ccc2c(c1)CCO[C@H]2[C@@H]1CCCCN1 [Compound I-72, (S)-2-((R)-isochroman-1-yl)piperidine] | + (LOQ ≤ + <5%) | ++ (5% ≤ ++ <25%) | ++ (5% ≤ ++ <25%) | + (LOQ ≤ + <5%) | + (LOQ ≤ + <5%) | + (LOQ ≤ + <5%) | + (LOQ ≤ + <5%) | + (LOQ ≤ + <5%) | + (LOQ ≤ + <5%) | +++ (25% ≤ +++ <50%) |
| Fc1ccc2c(c1)CO[C@@H]2[C@@H]1CCCN1 [Compound I-118, (S)-2-((S)-5-fluoro-1,3-dihydroisobenzofuran-1-yl)pyrrolidine] | + (LOQ ≤ + <5%) | ++ (5% ≤ ++ <25%) | +++ (25% ≤ +++ <50%) | ++ (5% ≤ ++ <25%) | ++ (5% ≤ ++ <25%) | + (LOQ ≤ + <5%) | ++ (5% ≤ ++ <25%) | +++ (25% ≤ +++ <50%) | ++ (5% ≤ ++ <25%) | + (LOQ ≤ + <5%) |
| OC1CO[C@@H]([C@@H]2CCCN2)c2ccc(F)cc21 (stereo partly drawn) [Compound I-134, (1R)-6-fluoro-1-((S)-pyrrolidin-2-yl)isochroman-4-ol] | + (LOQ ≤ + <5%) | + (LOQ ≤ + <5%) | ++ (5% ≤ ++ <25%) | + (LOQ ≤ + <5%) | + (LOQ ≤ + <5%) | + (LOQ ≤ + <5%) | + (LOQ ≤ + <5%) | + (LOQ ≤ + <5%) | + (LOQ ≤ + <5%) | + (LOQ ≤ + <5%) |
| Fc1ccc2c(c1)CCO[C@@H]2[C@H]1CCCN1 [Compound I-11, (R)-2-((S)-6-fluoroisochroman-1-yl)pyrrolidine] | + (LOQ ≤ + <5%) | ++ (5% ≤ ++ <25%) | ++ (5% ≤ ++ <25%) | ++ (5% ≤ ++ <25%) | ++ (5% ≤ ++ <25%) | + (LOQ ≤ + <5%) | + (LOQ ≤ + <5%) | +++ (25% ≤ +++ <50%) | + (LOQ ≤ + <5%) | ++ (5% ≤ ++ <25%) |
| c1ccc2c(c1)CCO[C@H]2[C@H]1CCCN1 [Compound I-19, (R)-2-((R)-isochroman-1-yl)pyrrolidine] | + (LOQ ≤ + <5%) | + (LOQ ≤ + <5%) | ++ (5% ≤ ++ <25%) | ++ (5% ≤ ++ <25%) | + (LOQ ≤ + <5%) | + (LOQ ≤ + <5%) | + (LOQ ≤ + <5%) | ++++ (50% ≤ ++++) | + (LOQ ≤ + <5%) | ++++ (50% ≤ ++++) |
| Fc1ccc2c(c1)[C@H]([C@H]1CCN1)OCC2 [Compound I-87, (R)-2-((R)-7-fluoroisochroman-1-yl)azetidine] | + (LOQ ≤ + <5%) | ++ (5% ≤ ++ <25%) | ++ (5% ≤ ++ <25%) | + (LOQ ≤ + <5%) | ++ (5% ≤ ++ <25%) | + (LOQ ≤ + <5%) | + (LOQ ≤ + <5%) | +++ (25% ≤ +++ <50%) | + (LOQ ≤ + <5%) | ++ (5% ≤ ++ <25%) |
| Fc1ccc2c(c1)CCO[C@@H]2[C@@H]1COCCN1 [Compound I-77, (S)-3-((S)-6-fluoroisochroman-1-yl)morpholine] | + (LOQ ≤ + <5%) | + (LOQ ≤ + <5%) | ++ (5% ≤ ++ <25%) | + (LOQ ≤ + <5%) | + (LOQ ≤ + <5%) | + (LOQ ≤ + <5%) | + (LOQ ≤ + <5%) | + (LOQ ≤ + <5%) | + (LOQ ≤ + <5%) | + (LOQ ≤ + <5%) |
| CC1(C)CN[C@@H]([C@@H]2OCCc3ccccc32)C1 [Compound I-61, (R)-2-((R)-isochroman-1-yl)-4,4-dimethylpyrrolidine] | + (LOQ ≤ + <5%) | +++ (25% ≤ +++ <50%) | ++ (5% ≤ ++ <25%) | + (LOQ ≤ + <5%) | ++ (5% ≤ ++ <25%) | + (LOQ ≤ + <5%) | ++ (5% ≤ ++ <25%) | ++ (5% ≤ ++ <25%) | + (LOQ ≤ + <5%) | + (LOQ ≤ + <5%) |
| Fc1ccc2c(c1)CCO[C@@H]2[C@@H]1CCN1 [Compound I-89, (S)-2-((S)-6-fluoroisochroman-1-yl)azetidine] | ++ (5% ≤ ++ <25%) | ++ (5% ≤ ++ <25%) | ++ (5% ≤ ++ <25%) | ++ (5% ≤ ++ <25%) | +++ (25% ≤ +++ <50%) | + (LOQ ≤ + <5%) | ++ (5% ≤ ++ <25%) | +++ (25% ≤ +++ <50%) | + (LOQ ≤ + <5%) | + (LOQ ≤ + <5%) |
| Fc1ccc2c(c1)[C@@H]([C@H]1CCCN1)OCCC2 [Compound I-108, (R)-2-((S)-8-fluoro-1,3,4,5-tetrahydrobenzo[c]oxepin-1-yl)pyrrolidine] | + (LOQ ≤ + <5%) | ++ (5% ≤ ++ <25%) | ++ (5% ≤ ++ <25%) | ++ (5% ≤ ++ <25%) | ++ (5% ≤ ++ <25%) | + (LOQ ≤ + <5%) | + (LOQ ≤ + <5%) | +++ (25% ≤ +++ <50%) | ++ (5% ≤ ++ <25%) | ++ (5% ≤ ++ <25%) |

same assay, conditions: i.p. 15 min before behavioral test, most efficacious dose(s) of 3 doses

| SMILES | XG: anxiogenic (probability that behavioral signature matches class) |
| --- | --- |
| Fc1ccc2c(c1)CO[C@@H]2[C@@H]1CCN1 [Compound I-126, (S)-2-((S)-5-fluoro-1,3-dihydroisobenzofuran-1-yl)azetidine] | + (LOQ ≤ + <5%) |
| c1ccc2c(c1)CCO[C@H]2[C@@H]1CCCCN1 [Compound I-72, (S)-2-((R)-isochroman-1-yl)piperidine] | ++ (5% ≤ ++ <25%) |
| Fc1ccc2c(c1)CO[C@@H]2[C@@H]1CCCN1 [Compound I-118, (S)-2-((S)-5-fluoro-1,3-dihydroisobenzofuran-1-yl)pyrrolidine] | + (LOQ ≤ + <5%) |
| OC1CO[C@@H]([C@@H]2CCCN2)c2ccc(F)cc21 (stereo partly drawn) [Compound I-134, (1R)-6-fluoro-1-((S)-pyrrolidin-2-yl)isochroman-4-ol] | + (LOQ ≤ + <5%) |
| Fc1ccc2c(c1)CCO[C@@H]2[C@H]1CCCN1 [Compound I-11, (R)-2-((S)-6-fluoroisochroman-1-yl)pyrrolidine] | + (LOQ ≤ + <5%) |
| c1ccc2c(c1)CCO[C@H]2[C@H]1CCCN1 [Compound I-19, (R)-2-((R)-isochroman-1-yl)pyrrolidine] | + (LOQ ≤ + <5%) |
| Fc1ccc2c(c1)[C@H]([C@H]1CCN1)OCC2 [Compound I-87, (R)-2-((R)-7-fluoroisochroman-1-yl)azetidine] | + (LOQ ≤ + <5%) |
| Fc1ccc2c(c1)CCO[C@@H]2[C@@H]1COCCN1 [Compound I-77, (S)-3-((S)-6-fluoroisochroman-1-yl)morpholine] | + (LOQ ≤ + <5%) |
| CC1(C)CN[C@@H]([C@@H]2OCCc3ccccc32)C1 [Compound I-61, (R)-2-((R)-isochroman-1-yl)-4,4-dimethylpyrrolidine] | ++ (5% ≤ ++ <25%) |
| Fc1ccc2c(c1)CCO[C@@H]2[C@@H]1CCN1 [Compound I-89, (S)-2-((S)-6-fluoroisochroman-1-yl)azetidine] | + (LOQ ≤ + <5%) |
| Fc1ccc2c(c1)[C@@H]([C@H]1CCCN1)OCCC2 [Compound I-108, (R)-2-((S)-8-fluoro-1,3,4,5-tetrahydrobenzo[c]oxepin-1-yl)pyrrolidine] | + (LOQ ≤ + <5%) |
